Measurements as given in patent US20080112915A1, “Dna Delivery with Gemini Cationic Surfactants” (priority 2003, published 2008).

Experiments:
[1] = test system: PAM212 cells; assay: Transfection of PAM212 cells with pGTmCMV.IFN-GFP plasmid using gemini cationic surfactants and DOPE; IFNγ by ELISA; assay type: cell-based, murine; details: for IFN-γ expression: PAM212 cells, pGTmCMV.IFN-GFP, plasmid-gemini surfactant charge ratio 1:10 in 1 mM DOPE vesicles; for transfection efficiency (in words): dependence on spacer length, charge ratio 1:10, DOPE; for IFNγ levels versus the other compounds with longer linkers: p<0.001
Description: The pGTmCMV.IFN-GFP plasmid was used at a concentration of 0.2 μg/well for transfection. Eight gemini surfactants were tested in this study (FIG. 1) (Wettig et al., 2001). Aqueous solutions (1.5 mM) of the gemini cationic surfactants were prepared and filtered through 0.2 μm Acrodisc® filters (Pall Gelman, Ann Arbor, Mich.). Lipid vesicles were prepared by using sonication techniques. 1,2 dioleyl-sn-glycero-phosphatidylethanolamine (DOPE) (Avanti Polar Lipids, Alabaster, Ala.) and α-tocopherol (Spectrum, Gardena Calif.) in 1:0.2 weight ratios were dissolved in 100% ethanol (Commercial Alcohols Inc., Brampton, ON) at a concentration of 10 mg lipid/mL in a round bottom flask. The solvent was evaporated in a rotary evaporator (Rotavapor RE111 BÜCHI Laboratoriums-Technik AG, Switzerland) at 100 rpm and 55° C. to deposit a thin film on the walls of the vessel. To remove traces of organic solvent, the lipid was lyophilized overnight. Glass beads were added to the flask and the lipid was resuspended at 1 μmol/mL concentration in 9.25% w/v isotonic sucrose (Spectrum, Gardena, Calif.) solution (pH 9). The suspensions were bath-sonicated (Branson 2200, Cleansonic Orange, Va.) for 3 hours at 55° C., followed by filtration through 0.45 μm Acrodisc® filters. PAM 212 murine keratinocyte cells were prepared for transfection as described earlier.
The transfection mixtures were prepared as follows: 0.2 μg of plasmid was mixed with aliquots of gemini surfactant solution to obtain plasmid DNA:gemini surfactant charge ratios of 1:5, 1:10, 1:20 or 1:40 and incubated at room temperature for 15 minutes. To this mixture, 25 μL of DOPE liposomes were added. The transfection mixtures were incubated for 30 minutes at room temperature prior to transfection and added to the cells, dropwise. The plates were incubated for periods of 5 or 6-24 hours at 37° C. in a CO2 incubator. The transfection mix was replaced with supplemented MEM and the plates further incubated for 24 hours. The supernatants were collected and stored at −20° C. As a positive control, the cells were transfected with Lipofectamine Plus™ Reagent, as described above.
ELISAs were performed using round bottom 96-well plates (Immulon II, Dynatech Laboratories, Chantilly, Va.). The plates were coated with 50 μL/well of capture antibody, rat anti-mouse IFNγ (Pharmingen, Mississauga, ON) 2 μg/mL coating buffer and incubated for 24 hours at 4° C. The wells were blocked with 1% bovine serum albumin (BSA) (New England Biolabs, Mississauga, ON) solution in PBS at room temperature for one hour. IFNγ standard (Pharmingen) of 250-2000 pg/mL concentration and was used in 1% BSA solution on plates. Protein resuspension buffer was used as a blank control. The supernatants from cell cultures and the skin and lymph homogenates, as well as the serum from mice, were diluted one in four on the plates and incubated overnight at 4° C. Biotinylated rat anti mouse IFNγ (Pharmingen) was added at […] concentration in 1% BSA solution. The plates were incubated for a further 2 h at room temperature. The streptavidin-alkaline phosphatase conjugate (Jackson Immuno Research Laboratories, Inc., West Grove, Pa.) was added in 1:5000 dilution and incubated for 1 h at room temperature, followed by addition of 4-nitrophenyl phosphate di(tris) salt 1 mg/mL in PNPP buffer (1% diethanolamine, 0.5 mM MgCl2, pH 9.8) (Sigma). Optical density of the samples was measured at 405 nm using a Benchmark Microplate Reader (BioRad, Mississauga, ON). The concentration of the IFNγ vas calculated from the standard IFNγ curve, using recombinant murine IFNγ (Pharmingen).

[2] = cited from earlier work; for distance between the cationic head groups: estimated, Chen et al.; for distance between the cationic head groups / Krafft point: 2002; for Γ × 10^6 (surface excess concentration): from Alami et al., 1993; for CMC (critical micellar concentration) / a (head group areas based on activity) / α (degree of micelle ionization): from Wettig et al., 2001; for Krafft point: from Zana
[3] = test system: PAM212 cells; assay: FACS of transfected PAM212 cells: GFP fluorescent cells and cell viability; assay type: cell-based, murine
Description: PAM212 cells were seeded on 6-well plates (Costar, Corning N.Y.) at a density of 1×10^6 cells/well density and grown to 60-80% confluency. The supplemented MEM was changed to MEM one hour prior to transfection. The transfection mixes were prepared with 1 μg pGTmCMV.IFN-GFP, using the 16-3-16 gemini cationic surfactant and DOPE liposomes at plasmid DNA:gemini cationic surfactant charge ratio of 1:5, 1:10, 1:20 or 1:40, as described earlier, keeping the concentration of the reagents constant. The cells were detached using Versene solution containing 0.05% trypsin (Sigma), pelleted at 4° C. and 1000 g for 5 minutes, washed twice with PBS and resuspended in Fa-cola (10 mM PBS pH 7.2, 0.2% gelatin, 0.03% sodium azide). Triplicate samples were pooled. The cell sorter was calibrated with non-transfected cells and 10^4 cells of each sample were counted.
The formulations were optimized for plasmid DNA:gemini surfactant charge ratio correlated with cell toxicity using the 16-3-16 compound. The optimal plasmid DNA:gemini surfactant charge ratio was determined by comparing the percentage of fluorescent cells (FIG. 5A) with cell viability (FIG. 5B). The cells were transfected with either transfection mixtures of the 16-3-16 gemini surfactant and DOPE at plasmid DNA:gemini surfactant charge ratio of 1:5, 1:10, 1:20 or 1:40, or Lipofectamine Plus™ Reagent (L), using 0.2 μg pGTmCMV.IFN-GFP, and compared to non-transfected cells (NT). Triplicate samples were pooled and 1×10^4 cells counted. […] At plasmid DNA:gemini surfactant charge ratio of 1:40 the transfection efficiency was 3.13%, however, cell viability fell to 20%. […] No fluorescence was detected in the non-transfected cells.

[4] = plasmid DNA:gemini surfactant charge ratio 1:40, with DOPE
[5] = plasmid:gemini surfactant charge ratio 1:10, with DOPE

| Compound | IFN-γ expression [1] | transfection efficiency (in words) [1] | IFNγ levels versus the other compounds with longer linkers [1] | distance between the cationic head groups [2] | Γ × 10^6 (surface excess concentration) [2] | CMC (critical micellar concentration) [2] | a (head group areas based on activity) [2] | α (degree of micelle ionization) [2] | Krafft point [2] | cell viability [3, 4] | transfection efficiency (fluorescent cells) [3, 4] | cell viability [3, 5] | percentage of fluorescent cells [3, 5] | IFNγ detection after transfection with single component alone ([1]; agent alone, or plasmid without transfection agents) |
| --- | --- | --- | --- | --- | --- | --- | --- | --- | --- | --- | --- | --- | --- | --- |
| CCCCCCCCCCCC[N+](C)(C)CCC[N+](C)(C)CCCCCCCCCCCC.[Br-].[Br-] [12-3-12] | 1.11 ± 0.65 ng/5 × 10^5 cells | highest activity | Significantly higher | 0.49 nm | 1.58 mol/m^2 | 0.98 ± 0.04 mM | 0.98 nm^2/molecule | 0.23 ± 0.02 | 12.7 °C | – | – | – | – | – |
| CCCCCCCCCCCC[N+](C)(C)CCCC[N+](C)(C)CCCCCCCCCCCC.[Br-].[Br-] [12-4-12] | 0.66 ± 0.32 ng/5 × 10^5 cells | – | Significantly higher | – | 1.43 mol/m^2 | 1.17 ± 0.04 mM | 1.10 nm^2/molecule | 0.26 ± 0.02 | 10.6 °C | – | – | – | – | – |
| CCCCCCCCCCCC[N+](C)(C)CCCCCC[N+](C)(C)CCCCCCCCCCCC.[Br-].[Br-] [12-6-12] | 0.48 ± 0.17 ng/5 × 10^5 cells | – | – | 0.91 nm | 1.16 mol/m^2 | 1.09 ± 0.04 mM | 1.40 nm^2/molecule | 0.34 ± 0.02 | <0 °C | – | – | – | – | – |
| CCCCCCCCCCCC[N+](C)(C)CCCCCCCC[N+](C)(C)CCCCCCCCCCCC.[Br-].[Br-] [12-8-12] | 0.24 ± 0.12 ng/5 × 10^5 cells | – | – | – | 0.94 mol/m^2 | 0.84 ± 0.03 mM | 1.78 nm^2/molecule | 0.46 ± 0.04 | <0 °C | – | – | – | – | – |
| CCCCCCCCCCCC[N+](C)(C)CCCCCCCCCC[N+](C)(C)CCCCCCCCCCCC.[Br-].[Br-] [12-10-12] | 0.29 ± 0.10 ng/5 × 10^5 cells | – | – | – | 0.75 mol/m^2 | 0.62 ± 0.03 mM | 2.16 nm^2/molecule | 0.51 ± 0.06 | <0 °C | – | – | – | – | – |
| CCCCCCCCCCCC[N+](C)(C)CCCCCCCCCCCC[N+](C)(C)CCCCCCCCCCCC [12-12-12] | 0.33 ± 0.16 ng/5 × 10^5 cells | – | – | – | 0.73 mol/m^2 | 0.36 ± 0.03 mM | 2.14 nm^2/molecule | 0.56 ± 0.08 | 13.6 °C | – | – | – | – | – |
| CCCCCCCCCCCC[N+](C)(C)CCCCCCCCCCCCCCCC[N+](C)(C)CCCCCCCCCCCC.[Br-].[Br-] [12-16-12] | 0.49 ± 0.19 ng/5 × 10^5 cells | – | – | – | 0.83 mol/m^2 | 0.12 ± 0.01 mM | 1.44 nm^2/molecule | 0.59 ± 0.08 | 24.3 °C | – | – | – | – | – |
| CCCCCCCCCCCCCCCC[N+](C)(C)CCC[N+](C)(C)CCCCCCCCCCCCCCCC [16-3-16] | 1.63 ± 1.37 ng/5 × 10^5 cells | highest activity | Significantly higher | – | 1.08 mol/m^2 | 0.026 ± 0.001 mM | 1.02 nm^2/molecule | 0.35 ± 0.02 | 42 °C | 20% | 3.13% | 74% | 2.36% | – |
| CCCCCCCC/C=C\CCCCCCCC(=O)OC[C@H](COP(=O)(O)OCCN)OC(=O)CCCCCCC/C=C\CCCCCCCC [DOPE, 1,2 dioleyl-sn-glycero-phosphatidylethanolamine, reference compound] | – | – | – | – | – | – | – | – | – | – | – | – | – | No IFNγ was detected |
